From patent US5948916A, “Arylthiadiazole derivative and antiviral agent containing the same” (priority 1994, dated 1999)
In brackets after ≈: the same amount, converted by molar mass. Like-named read-outs stand apart in the source and are kept apart here.

Columns and labels:
[1] = system: HIV; test: Virucidal test against HIV (protection of HIV-infected MT-4 cells, MTT method); format: cell-based; details: for S.I. (selectivity index, ratio CC50/EC50): CC50/EC50, MT-4 cells; for EC50: Human immunodeficiency virus 1, MT4, 120 h, read-out: EC50 (compound concentration effective to protect 50% of the MT-4 cells from death by HIV)
Procedure: (§1) Virucidal test aqainst HIV:
(§2) In RPMI1640 culture medium containing 20 mM HEPES buffer solution, 10% bovine fetus serum, and 20 μg/mL gentamycin, 3×10^4 cells of MT-4 (which will be killed by infection with HIV) were infected with HIV at a rate of 0.02 HIV per cell. To the fractions of the culture, predetermined portions of a sample containing the thiadiazole derivative of the compound No. shown in Table 27 and 28 were added, and the culture fractions were incubated at 37° C. After incubation for 5 days, living cells were measured by the MTT method to derive the compound concentration (EC50) which is effective to protects 50% of the MT-4 cells from death by HIV. Separately, the MT-4 cells were incubated in the same manner without infection by HIV, and the compound concentration (CC50) which causes death of 50% of the MT-4 cells. The ratio of CC50 /EC50 is the selectivity index (S.I.).

[2] = Cytotoxicity in MT-4 cells incubated without infection by HIV; format: cell-based; details: human; MT-4 cells without infection by HIV, 37° C., 5 days, MTT method; read-out: CC50 (compound concentration which causes death of 50% of the MT-4 cells)
Procedure: as §1, §2

[3] = MT-4 cells, 0.02 HIV per cell, 37° C., 5 days, MTT method

| SMILES | S.I. (selectivity index, ratio CC50/EC50) [1] | EC50 [1] [µg/mL] | CC50 at 120 h [2] [µg/mL] | EC50 [1, 3] [µg/mL] |
| --- | --- | --- | --- | --- |
| CN(C)C(=O)Oc1nsnc1-c1cc(N)ccc1Cl [Compound 21, N,N-Dimethyl [3-(5-amino-2-chlorophenyl)-1,2,5-thiadiazol-4-yl] CARBAMATE] | 240 | 0.15 (≈ 0.502 µM) | 36 (≈ 121 µM) | – |
| CCCN(C)C(=O)Oc1nsnc1-c1cc(N)ccc1Cl [Compound 22, N-Methyl-N-propyl [3-(5-amino-2-chlorophenyl)-1,2,5-thiadiazol-4-yl] carbamate] | 1048 | 0.021 (≈ 0.0643 µM) | 22 (≈ 67.3 µM) | – |
| CN(C)C(=O)Oc1nsnc1-c1c(Cl)ccc(N)c1Cl [Compound 70, N,N-dimethyl [3-(3-amino-2,6-dichlorophenyl)-1,2,5-thiadiazol-4-yl] carbamate] | 362 | 0.026 (≈ 0.078 µM) | 9.4 (≈ 28.2 µM) | – |
| CCCN(C)C(=O)Oc1nsnc1-c1c(Cl)ccc(N)c1Cl [Compound 71, N-Methyl-N-propyl [3-(3-amino-2,6-dichlorophenyl)-1,2,5-thiadiazol-4-yl] carbamate] | 2350 | 0.002 (≈ 0.00554 µM) | 4.7 (≈ 13 µM) | – |
| CCCN(C)C(=O)Oc1nsnc1-c1c(Cl)ccc(C#N)c1Cl [Compound 87, N-Methyl-N-propyl [3-(2,6-dichloro-3-cyanophenyl)-1,2,5-thiadiazol-4-yl] carbamate] | 7667 | 0.003 (≈ 0.00808 µM) | 23 (≈ 62 µM) | – |
| CCCN(C)C(=O)Oc1nsnc1-c1c(Cl)ccc(C(=O)OC)c1Cl [Compound 91, N-Methyl-N-propyl [3-(2,6-dichloro-3-methoxycarbonylphenyl)-1,2,5-thiadiazol-4-yl] carbamate] | 144 | 0.063 (≈ 0.156 µM) | 9.1 (≈ 22.5 µM) | – |
| CCCN(C)C(=O)Oc1nsnc1-c1c(Cl)ccc(C(N)=O)c1Cl [Compound 93, N-methyl-N-propyl [3-(3-carbamoyl-2,6-dichlorophenyl)-1,2,5-thiadiazol-4-yl] carbamate] | 59 | 1.1 (≈ 2.83 µM) | 65 (≈ 167 µM) | – |
| CCCN(C)C(=O)Oc1nsnc1-c1c(F)ccc(N)c1Cl [Compound 99, N-Methyl-N-propyl [3-(3-amino-2-chloro-6-fluorophenyl)-1,2,5-thiadiazole-4-yl] carbamate] | 2750 | 0.008 (≈ 0.0232 µM) | 22 (≈ 63.8 µM) | – |
| CN(C)C=Nc1nsnc1-c1c(Cl)cccc1Cl [Compound 127, N^1 -Dimethyl-N^2-[3-(2,6-dichlorophenyl)-1,2,5-thiadiazol-4-yl] formamidine] | 21 | – | 31 (≈ 103 µM) | 1.5 (≈ 4.98 µM) |
| CCCN(C)C=Nc1nsnc1-c1c(Cl)cccc1Cl [Compound 128, N^1-methyl-N^1-propyl-N^2-[3-(2,6-dichlorophenyl)-1,2,5-thiadiazol-4-yl]formamidine] | 48 | – | 9.2 (≈ 27.9 µM) | 0.19 (≈ 0.577 µM) |
| CCN(C=Nc1nsnc1-c1c(Cl)cccc1Cl)CC [Compound 130, N^1-diethyl-N^2 - [3-(2,6-dichlorophenyl)-1,2,5-thiadiazol-4-yl]formamidine] | 1000 | – | 14 (≈ 42.5 µM) | 0.014 (≈ 0.0425 µM) |
| CCN(CC)C(C)=Nc1nsnc1-c1c(Cl)cccc1Cl [Compound 131, N^1-diethyl-N^2-[3-(2,6-dichlorophenyl)-1,2,5-thiadiazol-4-yl]acetamidine] | 19 | – | 5.4 (≈ 15.7 µM) | 0.29 (≈ 0.845 µM) |
| CN(C)S(=O)(=O)Oc1nsnc1-c1c(Cl)cccc1Cl [Compound 138] | 9 | – | 9.9 (≈ 27.9 µM) | 1.1 (≈ 3.11 µM) |
| Clc1cccc(Cl)c1-c1nsnc1OCc1ccccn1 [Compound 145] | 39 | – | 2.7 (≈ 7.98 µM) | 0.07 (≈ 0.207 µM) |
| Clc1cccc(Cl)c1-c1nsnc1OCc1cccnc1 [Compound 146] | 6 | – | 1.9 (≈ 5.62 µM) | 0.3 (≈ 0.887 µM) |
| O=[N+]([O-])c1ccccc1COc1nsnc1-c1c(Cl)cccc1Cl [Compound 149] | 5 | – | 8.6 (≈ 22.5 µM) | 1.7 (≈ 4.45 µM) |
| CSCOc1nsnc1-c1c(Cl)cccc1Cl [Compound 155] | > 270 | – | > 100 | 0.37 (≈ 1.2 µM) |
| COCOc1nsnc1-c1c(Cl)cccc1Cl [Compound 156] | 24 | – | 43 (≈ 148 µM) | 1.8 (≈ 6.18 µM) |
| COCCOCOc1nsnc1-c1c(Cl)cccc1Cl [Compound 157] | 128 | – | 46 (≈ 137 µM) | 0.36 (≈ 1.07 µM) |
| COCCOc1nsnc1-c1c(Cl)cccc1Cl [Compound 159] | 5 | – | 11 (≈ 36 µM) | 2.2 (≈ 7.21 µM) |
| Clc1cccc(Cl)c1-c1nsnc1OCCBr [Compound 160, 3-(2-bromoethoxy)-4-(2,6-dichlorophenyl)-1,2,5-thiadiazole] | 15 | – | 4.8 (≈ 13.6 µM) | 0.32 (≈ 0.904 µM) |
| CCCN(C)CCOc1nsnc1-c1c(Cl)cccc1Cl [Compound 161, 3-(2,6-dichlorophenyl)-4-[2-(N-methyl-N-propylamino)ethoxy]-1,2,5-thiadiazole] | 10 | – | 8.3 (≈ 24 µM) | 0.8 (≈ 2.31 µM) |
| CCCN(C)C(=O)c1nsnc1-c1ccccc1Cl [Compound 195, N-methyl-N-propyl 4-(2-chlorophenyl)-1,2,5-thiadiazole-3-carboxamide] | 25 | – | 37 (≈ 125 µM) | 1.5 (≈ 5.07 µM) |
| CCCN(C)C(=O)Cc1nsnc1-c1ccccc1Cl [Compound 202, N-methyl-N-propyl [3-(2-chlorophenyl)-1,2,5-thiadiazol-4-yl]acetamide] | 7 | – | 18 (≈ 58.1 µM) | 2.5 (≈ 8.07 µM) |
| CN(CC#N)C(=O)Oc1nsnc1-c1c(Cl)cccc1Cl [Compound 218, N-(cyanomethyl)-N-methyl [3-(2,6-dichlorophenvl)-1,2,5-thiadiazol-4-yl] carbamate] | 168 | 0.38 (≈ 1.11 µM) | 64 (≈ 186 µM) | – |
| CN(CCC#N)C(=O)Oc1nsnc1-c1c(Cl)cccc1Cl [Compound 219, N-(2-cyanoethyl)-N-methyl [3-(2,6-dichlorophenyli-1,2,5-thiadiazol-4-yl] carbamate] | 2556 | 0.018 (≈ 0.0504 µM) | 46 (≈ 129 µM) | – |
| CN(CCO)C(=O)Oc1nsnc1-c1c(Cl)cccc1Cl [Compound 220, N-(2-Hydroxyethyl)-N-methyl [3-(2,6-dichlorophenyl)-1,2,5-thiadiazol-4-yl] carbamate] | 18 | 3.5 (≈ 10.1 µM) | 63 (≈ 181 µM) | – |
| CN(CCCC(=O)O)C(=O)Oc1nsnc1-c1c(Cl)cccc1Cl [Compound 222, N-(3-carboxypropyl)-N-methyl [3-(2,6-dichlorophenyl)-1,2,5-thiadiazol-4-yl] carbamate] | > 71 | 1.4 (≈ 3.59 µM) | > 100 | – |
| CN(CCC(N)=O)C(=O)Oc1nsnc1-c1c(Cl)cccc1Cl [Compound 223, N-(2-carbamoylethyl)-N-methyl [3-(2,6-dichlorophenyl)-1,2,5-thiadiazol-4-yl] carbamate] | > 38 | 2.6 (≈ 6.93 µM) | > 100 | – |
| CCOC(=O)CCN(C)C(=O)Oc1nsnc1-c1c(Cl)cccc1Cl [Compound 224, N-[2-(ethoxycarbonyl)ethyl]-N-methyl [3-(2,6-dichlorophenyl)-1,2,5-thiadiazol-4-yl] carbamate] | 385 | 0.13 (≈ 0.322 µM) | 50 (≈ 124 µM) | – |
